Consider 32 compounds from US6495604B1, “Cycloalkene derivatives, process for producing the same, and use” (Takeda Chemical Industries, Ltd., priority 1998, dated 2002).

The first experiment relates to NO production by RAW264.7 cell. Nature of the experiment: NO production-inhibiting effect in RAW264.7 cells (nitrite ion by DAN fluorescence). Format: cell-based, mouse. Particulars: Mus musculus, RAW264.7, RAW264.7; LPS 5 ng/ml + interferon gamma 1 U/ml; nitrite ion in culture supernatant after overnight incubation. On the procedure:
Mouse macrophage cell line RAW264.7 was used as an iNOS-inducible cell and a test compound was examined for its % inhibition of NO production. The test compound was dissolved at 10 mM in N,N-dimethylformamide and diluted with an RPMI-1640 medium at the concentration of 0.1 mM. The concentration was further adjusted using the medium so that a final concentration ranging from 10 μM to 10 nM could be obtained by a 10-fold serial dilution and the test compound was added to a culture medium. On the day before the experiment, the cell was adjusted at 5×10^5/ml in an RPMI-1640 medium supplemented with 10% inactivated fetal calf serum and inoculated to a 96-well microplate at 1×10^5 cells/0.2 ml per well. After incubating at 37° C. under an atmosphere of 5% CO2/95% air overnight, the test compound adjusted as described above was added and then LPS and interferon gamma were added at the final concentrations of 5 ng/ml and 1 U/ml, respectively. After further incubating overnight, culture supernatants were examined for the concentration of nitrite ion (stable metabolite of NO) which was used as an index for the NO production. The nitrite ion concentration was determined by adding 25 μl of 20 μg/ml of 2,3-diaminonaphthalene (DAN) to 50 μl of the culture supernatant, followed by incubating at room temperature for 10 minutes, followed by adding 25 μl of 0.5 N NaOH, followed by determining a fluorescence at 450 nm (excitation wavelength: 365 nm). An IC50 represents the concentration of the test compound which inhibits 50% of the NO production.
By IC50 is commonly meant the concentration that inhibits the measured activity by half. For the compound `CCOC(=O)C1=CCCCC1S(=O)(=O)N(C)c1ccc(Cl)cc1F` (centres unmarked) [Compound 2, ethyl 6-[N-(4-chloro-2-fluorophenyl)-N-methylsulfamoyl]-1-cyclohexene-1-carboxylate], the IC50 came out at 1.1 µM.
Still for that read-out and setting: the same measure for `CCOC(=O)C1=CCCCC1S(=O)(=O)Nc1c(C(C)C)cccc1C(C)C` (centres unmarked) [Compound 4, ethyl 6-[N-(2,6-diisopropylphenyl)sulfamoyl]-1-cyclohexene-1-carboxylate]: 2.6 µM; for `CCOC(=O)C1=CCCCC1S(=O)(=O)Nc1ccccc1` (centres unmarked) [Compound 6, ethyl 6-(N-phenylsulfamoyl)-1-cyclohexene-1-carboxylate]: 0.59 µM; for `CCOC(=O)C1=C(S(=O)(=O)Nc2ccccc2)CCCC1` [Compound 7, ethyl 2-(N-phenylsulfamoyl)-1-cyclohexene-1-carboxylate]: 4 µM.
On to `CCOC(=O)C1=C(S(=O)(=O)Nc2ccc(OC)cc2)CCCC1` [Compound 8, ethyl 2-[N-(4-methoxyphenyl)sulfamoyl]-1-cyclohexene-1-carboxylate], for which the IC50 is 4.8 µM.
Take `CCOC(=O)C1=C(S(=O)(=O)Nc2ccc(Cl)cc2F)CCCC1` [Compound 9, ethyl 2-[N-(4-chloro-2-fluorophenyl)sulfamoyl]-1-cyclohexene-1-carboxylate]: the IC50 amounted to 4.1 µM.
The same measure, in the same setting: then `CCOC(=O)C1=CCCCC1S(=O)(=O)Nc1ccccc1F` (centres unmarked) [Compound 10, ethyl 6-[N-(2-fluorophenyl)sulfamoyl]-1-cyclohexene-1-carboxylate], with 0.058 µM; and `CCOC(=O)C1=CCCCC1S(=O)(=O)Nc1ccc(F)cc1` (centres unmarked) [Compound 12, ethyl 6-[N-(4-fluorophenyl)sulfamoyl)-1-cyclohexene-1-carboxylate], with 0.18 µM; and `CCOC(=O)C1=CCCCC1S(=O)(=O)Nc1c(F)cccc1F` (centres unmarked) [Compound 13, ethyl 6-[N-(2,6-difluorophenyl)sulfamoyl]-1-cyclohexene-1-carboxylate], with 0.46 µM.
Regarding `CCOC(=O)C1=CCCCC1S(=O)(=O)Nc1cccc(F)c1F` (centres unmarked) [Compound 14, ethyl 6-[N-(2,3-difluorophenyl)sulfamoyl]-1-cyclohexene-1-carboxylate], the IC50 was 0.59 µM.
On to `CCOC(=O)C1=CCCCC1S(=O)(=O)Nc1cc(F)ccc1F` (centres unmarked) [Compound 15, ethyl 6-[N-(2,5-difluorophenyl)sulfamoyl]-1-cyclohexene-1-carboxylate], for which the IC50 turned out to be 0.28 µM.
For `CCOC(=O)C1=CCCCC1S(=O)(=O)Nc1ccc(F)c(F)c1` (centres unmarked) [Compound 16, ethyl 6-[N-(3,4-difluorophenyl)sulfamoyl]-1-cyclohexene-1-carboxylate], the IC50 was found to be 0.18 µM.
The same measure, in the same setting: the same measure for `CCOC(=O)C1=CCCCC1S(=O)(=O)Nc1cc(F)cc(F)c1` (centres unmarked) [Compound 17, ethyl 6-[N-(3,5-difluorophenyl)sulfamoyl]-1-cyclohexene-1-carboxylate]: 2.6 µM; for `CCOC(=O)C1=C(S(=O)(=O)Nc2ccc(F)cc2)CCCC1` [Compound 18, ethyl 2-[N-(4-fluorophenyl)sulfamoyl)-1-cyclohexene-1-carboxylate]: 4.4 µM.
Regarding `CCOC(=O)C1=CCCCC1S(=O)(=O)Nc1ccccc1C(=O)OCC` (centres unmarked) [Compound 21, ethyl 6-[N-(2-ethoxycarbonylphenyl)sulfamoyl]-1-cyclohexene-1-carboxylate], the IC50 amounted to 2.4 µM.
Still for that read-out and setting: then `COC(=O)C1=CCCCC1S(=O)(=O)Nc1ccc(F)cc1F` (centres unmarked) [Compound 22, methyl 6-[N-(2,4-difluorophenyl)sulfamoyl]-1-cyclohexene-1-carboxylate], with 0.18 µM.
Same read-out and setting: then `CCCOC(=O)C1=CCCCC1S(=O)(=O)Nc1ccc(F)cc1F` (centres unmarked) [Compound 23, propyl 6-[N-(2,4-difluorophenyl)sulfamoyl]-1-cyclohexene-1-carboxylate], with 0.027 µM; and `COC(=O)C1=CCCCC1S(=O)(=O)Nc1ccc(Cl)cc1F` (centres unmarked) [Compound 24, methyl 6-[N-(4-chloro-2-fluorophenyl)sulfamoyl]-1-cyclohexene-1-carboxylate], with 0.78 µM; and `CC(C)OC(=O)C1=CCCCC1S(=O)(=O)Nc1ccc(F)cc1F` (centres unmarked) [Compound 25, isopropyl 6-[N-(2,4-difluorophenyl)sulfamoyl]-1-cyclohexene-1-carboxylate], with 0.32 µM.
Consider `CCOC(=O)C1=CCCCC1S(=O)(=O)Nc1ccccc1C(=O)OC` (centres unmarked) [Compound 26, ethyl 6-[N-(2-methoxycarbonylphenyl)sulfamoyl]-1-cyclohexene-1-carboxylate], for which the IC50 turned out to be 3.3 µM.
Consider `CCOC(=O)C1=CCCCC1S(=O)(=O)Nc1ccc(C)cc1F` (centres unmarked) [Compound 27, ethyl 6-[N-(2-fluoro-4-methylphenyl)sulfamoyl]-1-cyclohexene-1-carboxylate], for which the IC50 was determined as 0.25 µM.
Same read-out and setting: then `CCOC(=O)C1=CCCCC1S(=O)(=O)Nc1ccccc1Cl` (centres unmarked) [Compound 28, ethyl 6-[N-(2-chlorophenyl)sulfamoyl]-1-cyclohexene-1-carboxylate], with 0.029 µM; and `CCOC(=O)C1=CCCCC1S(=O)(=O)Nc1ccc(F)cc1Cl` (centres unmarked) [Compound 29, ethyl 6-[N-(2-chloro-4-fluorophenyl)sulfamoyl]-1-cyclohexene-1-carboxylate], with 0.0093 µM; and `CCOC(=O)C1=CCCCC1S(=O)(=O)Nc1ccc(F)c(F)c1F` (centres unmarked) [Compound 31, ethyl 6-[N-(2,3,4-trifluorophenyl)sulfamoyl]-1-cyclohexene-1-carboxylate], with 0.23 µM.
Regarding `CC(C)COC(=O)C1=CCCCC1S(=O)(=O)Nc1ccc(F)cc1F` (centres unmarked) [Compound 32, isobutyl 6-[N-(2,4-difluorophenyl)sulfamoyl]-1-cyclohexene-1-carboxylate], the IC50 came to 0.23 µM.
The same measure, in the same setting: the same measure for `CCCCOC(=O)C1=CCCCC1S(=O)(=O)Nc1ccc(F)cc1F` (centres unmarked) [Compound 33, butyl 6-[N-(2,4-difluorophenyl)sulfamoyl]-1-cyclohexene-1-carboxylate]: 0.26 µM; for `CCOC(=O)C1=CCCCC1S(=O)(=O)Nc1ccc(Br)cc1F` (centres unmarked) [Compound 34, ethyl 6-[N-(4-bromo-2-fluorophenyl)sulfamoyl]-1-cyclohexene-1-carboxylate]: 0.35 µM.
For `CCOC(=O)C1=CCCCC1S(=O)(=O)Nc1ccc(Cl)cc1Cl` (centres unmarked) [Compound 35, ethyl 6-[N-(2,4-dichlorophenyl)sulfamoyl]-1-cyclohexene-1-carboxylate], the IC50 came to 0.082 µM.

Still in this experiment, the particulars now being: Mus musculus; RAW264.7; LPS 5 ng/ml + interferon gamma 1 U/ml; nitrite ion in culture supernatant after overnight incubation.
Regarding `CCOC(=O)C1=CCCCC1S(=O)(=O)Nc1ccc([N+](=O)[O-])cc1` (centres unmarked) [Compound 5, ethyl 6-[N-(4-nitrophenyl)sulfamoyl]-1-cyclohexene-1-carboxylate], the IC50 was 3.7 µM.
On to `CCOC(=O)C1=CCCCC1S(=O)(=O)Nc1ccc(Cl)cc1` (centres unmarked) [Compound 30, ethyl 6-[N-(4-chlorophenyl)sulfamoyl]-1-cyclohexene-1-carboxylate], for which the IC50 stood at 0.54 µM.
`CCOC(=O)C1=CCCCC1S(=O)(=O)Nc1cccc(Cl)c1` (centres unmarked) [Compound 37, ethyl 6-[N-(3-chlorophenyl)sulfamoyl]-1-cyclohexene-1carboxylate]: the IC50 is 0.13 µM.

The same experiment, now with this note: RAW264.7; LPS 5 ng/ml + interferon gamma 1 U/ml; nitrite ion in culture supernatant after overnight incubation.
For `CCOC(=O)C1=CCCCC1S(=O)(=O)Nc1ccc(F)cc1F` (centres unmarked) [Compound 19, 1-ethyl 6-[N-(2,4-difluorophenyl)sulfamoyl]-1-cyclohexene-1-carboxylate], the IC50 was found to be 2 µM.
